Data taken from patent publication US20180244611A1, “Modulators of the Cystic Fibrosis Transmembrane Conductance Regulator Protein and Methods of Use” (AbbVie S.à.r.l., priority 2017, published 2018).

Tests used:
F508delCFTR [1] = biological target: T1, F508delCFTR (Homo sapiens, UniProt P13569, DEL508-508); test: Cell Surface Expression-Horse Radish Peroxidase (CSE-HRP) assay, test compound with co-corrector; type: cell-based; conditions: with 2 μM co-corrector; for Maximum % activity (with co-corrector): maximum at any tested concentration, normalized to positive control;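 as to Maximum % activity (with co-corrector): percent of 2 µM positive control corrector over DMSO; co-corrector is that same compound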
T1 construct: expressed in transfected cells; host or cells: CFBE41o- human lung-derived epithelial cells (CFBE41o-F508delCFTR-HRP), doxycycline-inducible
Experimental: (§1) Cell Surface Expression-Horse Radish Peroxidase (CSE-HRP) Assay
(§2) A cellular assay for measuring the F508delCFTR cell surface expression after correction with test compounds either without or with a co-corrector (2 μM of 3-[(2R,4R)-4-({[1-(2,2-difluoro-1,3-benzodioxol-5-yl)cyclopropyl]carbonyl}amino)-7-methoxy-3,4-dihydro-2H-chromen-2-yl]benzoic acid), was developed in human lung derived epithelial cell line (CFBE41o-) (Veit G et al, (2012) Mol Biol Cell. 23(21): 4188-4202). The development was achieved by expressing the F508delCFTR mutation along with a horseradish peroxidase (HRP) in the fourth exofacial loop, and then measuring the HRP activity using luminescence readout from these cells, CFBE41o-F508delCFTR-HRP, that were incubated overnight with the test corrector compounds, either without or with the co-corrector. For this primary assay, the CFBE41o-F508delCFTR-HRP cells were plated in 384-well plates (Greiner Bio-one; Cat 781080) at 4,000 cells/well along with 0.5 μg/mL doxycycline to induce the F508delCFTR-HRP expression and further incubated at 37° C., 5% CO2 for 72 hours. The test compounds were then added either without or with a co-corrector at the required concentrations and further incubated for 18-24 hours at 33° C. The highest concentration tested was 20 μM with an 8-point concentration response curve using a 3-fold dilution in both the test compound without or with the co-corrector. Three replicate plates were run to determine one EC50. All plates contained negative controls (dimethyl sulfoxide, DMSO) and positive control (2 μM of 3-[(2R,4R)-4-({[1-(2,2-difluoro-1,3-benzodioxol-5-yl)cyclopropyl]carbonyl}amino)-7-methoxy-3,4-dihydro-2H-chromen-2-yl]benzoic acid) as well as on-plate concentration response of the positive control. Post incubation, the plates were washed 5× times with Dulbecco's phosphate buffered saline (DPBS), followed by the addition of the HRP substrate, luminol (50 μL), and measuring the HRP activity using luminescence readout on EnVision® Multilabel Plate Reader (Perkin Elmer; product number 2104-0010). The raw counts from the experiment were analyzed using Accelrys® Assay Explorer v3.3.
(§3) Z′ greater than 0.5 was used as passing quality control criteria for the plates.
(§4) 1−[3*SDPositive Control+3*SDNegative Control/Absolute (MeanPositive Control−MeanNegative Control)]
(§5) wherein “SD” is standard deviation.
(§6) The % activity measured at each of the 8 test concentrations of the test compound added either without or with a co-corrector (2 μM of 3-[(2R,4R)-4-({[1-(2,2-difluoro-1,3-benzodioxol-5-yl)cyclopropyl]carbonyl}amino)-7-methoxy-3,4-dihydro-2H-chromen-2-yl]benzoic acid) was normalized to the on-plate positive control using the following formulae:
activity (Test compound with co-corrector)=[(test compound with co-corrector response−DMSO response)/(positive control response−DMSO response)]*100
(§7) The maximum % activity achieved for the test compound either without or with a co-corrector at any tested concentration is presented in Table 1 along with the respective EC50's calculated using the following general sigmoidal curve with variable Hill slope equation (described as Model 42 in the Accelrys® Assay Explorer v3.3 software):
(§8) General sigmoidal curve with concentration, response, top, bottom, EC50 and Hill slope. This model describes a sigmoidal curve with an adjustable baseline, a. The equation can be used to fit curves where response is either increasing or decreasing with respect to the independent variable, “x”.
“x” is a concentration of drug under test. “y” is the response. “a” is the maximum response, and “d” is the minimum response “c” is the inflection point (EC50) for the curve. That is, “y” is halfway between the lower and upper asymptotes when x=c. “b” is the slope-factor or Hill coefficient. The sign of b is positive when the response increases with increasing dose and is negative when the response decreases with increasing dose (inhibition).

F508delCFTR [2] = biological target: T1, F508delCFTR; test: Cell Surface Expression-Horse Radish Peroxidase (CSE-HRP) assay, test compound without co-corrector; type: cell-based; conditions: for Emax: maximum at any tested concentration, normalized to positive control, without co-corrector; for EC50: test compound without co-corrector;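 as to Emax: percent of on-plate 2 µM positive control corrector response over DMSO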
Experimental: as §1, §2, §3, §4, §5, §6
% activity (Test compound without co-corrector)=[(test compound without co-corrector response−DMSO response)/(positive control response−DMSO response)]*100%
as §7, §8
“x” is a concentration of drug under test. “y” is the response. “a” is the maximum response, and “d” is the minimum response “c” is the inflection point (EC50) for the curve. That is, “y” is halfway between the lower and upper asymptotes when x=c. “b” is the slope-factor or Hill coefficient. The sign of b is positive when the response increases with increasing dose and is negative when the response decreases with increasing dose (inhibition). The data is presented with the qualifiers shown below: […]

T1 sequence (P13569 with tags, fused parts or gaps DEL508-508): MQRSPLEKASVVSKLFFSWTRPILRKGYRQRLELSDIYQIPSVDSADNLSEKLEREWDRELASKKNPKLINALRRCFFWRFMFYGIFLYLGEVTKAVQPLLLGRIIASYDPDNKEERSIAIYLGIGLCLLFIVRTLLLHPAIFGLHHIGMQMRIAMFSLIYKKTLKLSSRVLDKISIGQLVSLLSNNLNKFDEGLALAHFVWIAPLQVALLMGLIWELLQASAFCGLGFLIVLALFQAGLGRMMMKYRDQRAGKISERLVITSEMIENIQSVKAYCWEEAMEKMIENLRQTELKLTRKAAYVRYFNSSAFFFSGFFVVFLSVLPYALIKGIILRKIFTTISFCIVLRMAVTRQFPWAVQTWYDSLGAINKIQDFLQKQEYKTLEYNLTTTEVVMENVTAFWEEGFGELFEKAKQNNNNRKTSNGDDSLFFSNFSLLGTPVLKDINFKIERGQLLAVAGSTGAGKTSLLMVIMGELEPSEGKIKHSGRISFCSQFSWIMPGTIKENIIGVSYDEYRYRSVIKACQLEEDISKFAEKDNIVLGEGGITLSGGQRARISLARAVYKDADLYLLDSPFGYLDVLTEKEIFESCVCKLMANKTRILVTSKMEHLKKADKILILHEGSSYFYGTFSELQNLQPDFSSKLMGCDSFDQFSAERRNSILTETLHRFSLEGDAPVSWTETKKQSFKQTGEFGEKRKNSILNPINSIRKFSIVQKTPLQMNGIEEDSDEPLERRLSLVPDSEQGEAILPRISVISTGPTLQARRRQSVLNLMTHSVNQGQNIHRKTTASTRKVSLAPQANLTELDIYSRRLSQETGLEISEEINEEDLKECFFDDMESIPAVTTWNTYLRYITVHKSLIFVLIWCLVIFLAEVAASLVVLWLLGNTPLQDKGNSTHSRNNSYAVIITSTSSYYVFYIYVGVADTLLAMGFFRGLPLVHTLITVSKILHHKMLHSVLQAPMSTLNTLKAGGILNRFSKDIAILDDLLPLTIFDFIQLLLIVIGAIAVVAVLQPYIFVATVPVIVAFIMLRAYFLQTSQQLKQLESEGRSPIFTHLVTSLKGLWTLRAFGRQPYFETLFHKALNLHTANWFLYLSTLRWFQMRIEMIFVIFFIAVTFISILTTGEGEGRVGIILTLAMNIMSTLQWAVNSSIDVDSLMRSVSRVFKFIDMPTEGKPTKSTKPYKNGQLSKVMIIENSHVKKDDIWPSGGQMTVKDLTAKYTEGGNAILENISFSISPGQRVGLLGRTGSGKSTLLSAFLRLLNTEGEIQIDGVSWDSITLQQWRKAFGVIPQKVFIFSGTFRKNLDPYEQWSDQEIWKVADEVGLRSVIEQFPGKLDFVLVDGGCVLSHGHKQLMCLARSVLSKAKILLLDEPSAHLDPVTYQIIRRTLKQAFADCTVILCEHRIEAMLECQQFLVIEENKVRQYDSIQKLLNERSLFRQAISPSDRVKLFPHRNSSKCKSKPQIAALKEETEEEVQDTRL

| Structure (SMILES) | Maximum % activity (with co-corrector) (F508delCFTR [1]) | EC50 (F508delCFTR [1]) | Emax (F508delCFTR [2]) | EC50 (F508delCFTR [2]) |
| --- | --- | --- | --- | --- |
| COc1cccc2c1CCCC2(Cc1ccccc1)C(=O)NS(=O)(=O)c1cccc2ccccc12 (stereo not shown) [Example I-9, 1-benzyl-5-methoxy-N-(naphthalene-1-sulfonyl)-1,2,3,4-tetrahydronaphthalene-1-carboxamide] | +++ (≥350) | < 3 µM | ≥ 150% | < 3 µM |
| CCC1(C(=O)NS(=O)(=O)c2cccc3ccccc23)CCCc2c(OC)cccc21 (stereo not shown) [Example I-10, 1-ethyl-5-methoxy-N-(naphthalene-1-sulfonyl)-1,2,3,4-tetrahydronaphthalene-1-carboxamide] | +++ (≥350) | < 3 µM | ≥ 150% | 3 to 10 µM |
| O=C(NS(=O)(=O)c1cccc2ccccc12)[C@@H]1CCCc2cccc(Cl)c21 [Example I-11, (1R)-8-chloro-N-(naphthalene-1-sulfonyl)-1,2,3,4-tetrahydronaphthalene-1-carboxamide] | +++ (≥350) | < 3 µM | ≥ 150% | < 3 µM |
| O=C(NS(=O)(=O)c1cccc2ccccc12)[C@H]1CCCc2cccc(Cl)c21 [Example I-12, (1S)-8-chloro-N-(naphthalene-1-sulfonyl)-1,2,3,4-tetrahydronaphthalene-1-carboxamide] | +++ (≥350) | < 3 µM | ≥ 150% | 3 to 10 µM |
| CCC1(C(=O)NS(=O)(=O)c2cccc3c2OC(F)(F)O3)CCc2c(Cl)cccc21 (stereo not shown) [Example I-13, 4-chloro-N-(2,2-difluoro-2H-1,3-benzodioxole-4-sulfonyl)-1-ethyl-2,3-dihydro-1H-indene-1-carboxamide] | ++ (≥150 and <350) | < 3 µM | < 50% | ≥ 10 µM |
| CC1(C(=O)NS(=O)(=O)c2cccc3ccccc23)CCc2cccc(Cl)c21 (stereo not shown) [Example I-14, 7-chloro-1-methyl-N-(naphthalene-1-sulfonyl)-2,3-dihydro-1H-indene-1-carboxamide] | +++ (≥350) | < 3 µM | ≥ 150% | < 3 µM |
| COc1ccc(Br)c2c1CCCC2C(=O)NS(=O)(=O)c1cccc2ccccc12 (stereo not shown) [Example I-15, 8-bromo-5-methoxy-N-(naphthalene-1-sulfonyl)-1,2,3,4-tetrahydronaphthalene-1-carboxamide] | +++ (≥350) | < 3 µM | ≥ 150% | < 3 µM |
| O=C(NS(=O)(=O)c1cccc2ccccc12)C1(CCN2CCC(F)(F)C2)CCc2c(Cl)cccc21 (stereo not shown) [Example I-16, 4-chloro-1-[2-(3,3-difluoropyrrolidin-1-yl)ethyl]-N-(naphthalene-1-sulfonyl)-2,3-dihydro-1H-indene-1-carboxamide] | +++ (≥350) | < 3 µM | 50 to 150% | < 3 µM |
| CC[C@]1(C(=O)NS(=O)(=O)c2cccc3ccccc23)CCc2c(Cl)cccc21 [Example I-17, (1S)-4-chloro-1-ethyl-N-(naphthalene-1-sulfonyl)-2,3-dihydro-1H-indene-1-carboxamide] | +++ (≥350) | < 3 µM | 50 to 150% | < 3 µM |
| CC[C@@]1(C(=O)NS(=O)(=O)c2cccc3ccccc23)CCc2c(Cl)cccc21 [Example I-18, (1R)-4-chloro-1-ethyl-N-(naphthalene-1-sulfonyl)-2,3-dihydro-1H-indene-1-carboxamide] | +++ (≥350) | < 3 µM | ≥ 150% | < 3 µM |
| COc1ccc(Br)c2c1C(C(=O)NS(=O)(=O)c1cccc3ccccc13)CC2 (stereo not shown) [Example I-19, 4-bromo-7-methoxy-N-(naphthalene-1-sulfonyl)-2,3-dihydro-1H-indene-1-carboxamide] | +++ (≥350) | < 3 µM | ≥ 150% | 3 to 10 µM |
| C[C@]1(C(=O)NS(=O)(=O)c2cccc3ccccc23)CCc2c1ccc1c2OCO1 [Example I-20, (6S)-6-methyl-N-(naphthalene-1-sulfonyl)-7,8-dihydro-2H,6H-indeno[4,5-d][1,3]dioxole-6-carboxamide] | +++ (≥350) | 3 to 10 µM | ≥ 150% | 3 to 10 µM |
| C[C@@]1(C(=O)NS(=O)(=O)c2cccc3ccccc23)CCc2c1ccc1c2OCO1 [Example I-21, (6R)-6-methyl-N-(naphthalene-1-sulfonyl)-7,8-dihydro-2H,6H-indeno[4,5-d][1,3]dioxole-6-carboxamide] | +++ (≥350) | 3 to 10 µM | ≥ 150% | 3 to 10 µM |
| COc1ccc2c(c1)[C@@](C)(C(=O)NS(=O)(=O)c1cccc3ccccc13)CC2 [Example I-22, (1S)-6-methoxy-1-methyl-N-(naphthalene-1-sulfonyl)-2,3-dihydro-1H-indene-1-carboxamide] | +++ (≥350) | < 3 µM | ≥ 150% | 3 to 10 µM |
| COc1ccc2c(c1)[C@](C)(C(=O)NS(=O)(=O)c1cccc3ccccc13)CC2 [Example I-23, (1R)-6-methoxy-1-methyl-N-(naphthalene-1-sulfonyl)-2,3-dihydro-1H-indene-1-carboxamide] | +++ (≥350) | < 3 µM | ≥ 150% | 3 to 10 µM |
| O=C(NS(=O)(=O)c1cccc2ccccc12)C1CCCc2c1ccc1c2OCO1 (stereo not shown) [Example I-24, N-(naphthalene-1-sulfonyl)-6,7,8,9-tetrahydro-2H-naphtho[1,2-d][1,3]dioxole-6-carboxamide] | +++ (≥350) | < 3 µM | ≥ 150% | 3 to 10 µM |
| C[C@@]1(C(=O)NS(=O)(=O)c2cccc3ccccc23)CCc2cccc(Cl)c21 [Example I-27, (1R)-7-chloro-1-methyl-N-(naphthalene-1-sulfonyl)-2,3-dihydro-1H-indene-1-carboxamide] | +++ (≥350) | < 3 µM | ≥ 150% | < 3 µM |
| CCC1(C(=O)NS(=O)(=O)c2cccc3ccccc23)CCc2c(Br)ccc(OC)c21 (stereo not shown) [Example I-28, 4-bromo-1-ethyl-7-methoxy-N-(naphthalene-1-sulfonyl)-2,3-dihydro-1H-indene-1-carboxamide] | +++ (≥350) | < 3 µM | ≥ 150% | < 3 µM |
| O=C(NS(=O)(=O)c1cccc2ccccc12)C1(CC2CC2)CCc2c(Cl)cccc21 (stereo not shown) [Example I-29, 4-chloro-1-(cyclopropylmethyl)-N-(naphthalene-1-sulfonyl)-2,3-dihydro-1H-indene-1-carboxamide] | +++ (≥350) | < 3 µM | ≥ 150% | < 3 µM |
